Experiments:
HRT-18 cells = assay: Intracellular accumulation of macrolides in HRT-18 cells; type: in vitro ADME, human; conditions: for average intracellular concentration / intracellular:extracellular ratio: 10 μg/mL antibiotic
Description: HRT-18 cells, in 6 cm tissue cultures dishes, were incubated in the presence of 0.5, 5 or 50 μg/mL tylvalosin. After 4 h, two dishes for each tylvalosin concentration and two dishes without antibiotic were removed from the incubator. A sample of medium (about 1 mL) was removed, placed in a labelled Eppendorf tube and stored at −20° C. The rest of the medium was then removed. Each of the cell monolayers was washed twice in PBS, using approximately 5 mL for each wash. The plunger from a 2 mL plastic syringe was used to gently scrape off the cells. PBS (500 μL) was added to the dish and the cells gently removed into this medium, using a micropipette. The sample was then placed in an Eppendorf tube and centrifuged at 8000×g in a bench centrifuge (Biofuge pico, Heraeus instruments) for 13 sec. An obvious cell pellet formed. The supernatant was removed using a micropipette and the cell material was stored at −20° C. in a labelled Eppendorf tube. After approximately 24 h the remaining tissue culture dishes were removed from the incubator and treated as described above for the 4 h samples. All the samples, including the 4 h samples, were then stored at −70° C.
HRT-18 cells were prepared as described above and used at passage 42. Stock solutions of antibiotics (either tylvalosin, tylosin or tilmicosin) were diluted in growth media and 10 μg/mL each antibiotic was added to the confluent cell monolayers. The cells were incubated at 37° C. in a 5% CO2 atmosphere for either 4 h or 24 h. The media and cells were harvested and tested for antibiotic, as described above.
(§1) All the supernatant and cell samples were transported frozen (at approximately −20° C.) to York Bioanalytical Solutions (York, England) for analysis. Briefly, 0.25 g of buffer (RPMI medium containing 10% FCS) was weighed into a polypropylene tube. A 50 μL volume of the appropriate working solution was added to the quality control (QC) samples. Methanol (50 μL) was added to each blank sample used for preparation of calibration standards, recovery samples and reagent blanks. A 2.5 mL volume of 0.1 M phosphate buffer was added to each sample, vortex mixed for approximately 1 min and then centrifuged at 3220×g for 10 min at 4° C.
(§2) For the liquid-liquid clean-up phase, an aliquot (100 μL) of the supernatant was transferred to a polypropylene tube. The pH was adjusted to pH 8-8.5 by the addition of 0.1 M NaOH, and vortex mixed. Ethyl acetate (5 mL) was added and after capping, the whole mixture was shaken for 10 min and then centrifuged at 3220×g for 10 min at 4° C.
(§3) Ammonium acetate (20 mM; pH native)—formic acid, 1000:3, v/v (100 μL) was added to each well in a 2 mL polypropylene collection plate. An aliquot of the ethyl acetate mixture (100 μL) was transferred to the polypropylene collection plate and evaporated under nitrogen (40° C.) until the ethyl acetate was fully evaporated whilst the ammonium acetate remained. Methanol (100 μL) was added to each well, excluding the calibration standards.
(§4) To each well containing a calibration standard, 100 μL of the appropriate calibration working solution was added. Samples were then vortex mixed for at least 10 min and submitted for liquid chromatography with tandem mass spectrometric analysis. The method stated was applicable to the samples of media (and the calibration standards and quality control samples).
For the cells, the sample tubes were weighed, and 100 μL of acetonitrile was added. The samples were vortex mixed for 10 sec, then centrifuged at 10285×g at 4° C. for 5 min. The sample was transferred to a polypropylene tube. The original sample tube was washed with 0.1 M phosphate buffer (1 mL). This was transferred to the polypropylene tube. A second wash of 1 mL was made, then a final wash of 0.5 mL. The polypropylene tube was now at the same stage as the end of the liquid extraction, but with the cells present rather than media. This was then taken through the sample preparation as described above. […]

LLC-PK1 cells = assay: Intracellular accumulation in pig kidney epithelial cells; type: in vitro ADME; conditions: LLC-PK1, 10 μg/mL
Description: LLC-PKI cells in 6 cm^2 plastic tissue culture dishes were incubated with 10 μg/mL of the different macrolides. Cells and medium were harvested as described above at 30, 75 and 120 min.
as §1, §2, §3, §4
For the cells, the sample tubes were weighed, and 100 μL of acetonitrile was added. The samples were vortex mixed for 10 sec, then centrifuged at 10285×g at 4° C. for 5 min. The sample was transferred to a polypropylene tube. The original sample tube was washed with 0.1 M phosphate buffer (1 mL). This was transferred to the polypropylene tube. A second wash of 1 mL was made, then a final wash of 0.5 mL. The polypropylene tube was now at the same stage as the end of the liquid extraction, but with the cells present rather than media. This was then taken through the sample preparation as described above. The original sample tubes were allowed to dry (i.e. any remaining solvent evaporated off) and were then reweighed to determine the weight of cells in the sample, to allow the concentration per gram of cells to be determined.

[1] = system: equine influenza strain Miami; type: cell-based; conditions: 1 μg/ml, 4 h pretreatment, moi 10, fixed 4 h post infection
[2] = system: PR8 strain of influenza A virus; assay: Influenza infection of MDCK cells, immunofluorescence (Example 4), strain PR8; type: cell-based, human influenza; conditions: 1 μg/ml, 4 h pretreatment, moi 10, fixed 4 h post infection
PRRSV = PRRSV infection and cell spread in MA104 cells, drug added after infection (Example 5); type: cell-based; conditions: moi 0.01, 1 μg/ml added 8 hours post infection
Description: MA104 cells were infected with PRRSV at moi of 0.01 (should infect roughly 10% of the cells in the first round). 8 hours post infection tylvalosin, tylosin and tilmicosin were added at 1 μg/ml. Cells were harvested 28 hours post infection and infection was assessed by indirect immunofluorescence.
As stated above a moi of 0.01 should infect roughly 10% of the cells. However, after 28 hours the virus will have completed one round of infection and will have infected neighbouring cells. […] This detection increases 16-20 hours post infection and by 24 hours low levels of expression in neighbouring cells can be detected.
The addition of drugs 8 hours post infection should have no effect on the primary infection (i.e. no effect on entry of input virus). It could, however, effect viral replication directly or indirectly through other mechanisms and could also effect virus entry during the secondary round of infection where virus produced by the initially infected cells infects neighbouring cells.

influenza strain Udorn = assay: Influenza virus time course in MDCK cells, immunofluorescence and plaque assay (Example 12); type: cell-based
[3] = orally administered, in vivo (Okamoto et al., 1981); cited from earlier work

Q: With `CCC1OC(=O)CC(OC(C)=O)C(C)C(OC2OC(C)C(OC3CC(C)(O)C(OC(=O)CC(C)C)C(C)O3)C(N(C)C)C2O)C(CC=O)CC(C)C(=O)C=CC(C)=CC1COC1OC(C)C(O)C(OC)C1OC` (centres unmarked) [tylvalosin, 3-O acetyl-4″-O-isovaleryltylosin] as the compound, how does the average intracellular concentration (HRT-18 cells; HRT-18 cells, 4 h) read?
A: Its average intracellular concentration is 61.8 μg/mg cells.

Q: And the “intracellular:extracellular ratio” value (HRT-18 cells; HRT-18 cells, 4 h)?
A: Its value is 5.13 fold.

Q: What about the average intracellular concentration (HRT-18 cells; HRT-18 cells, 24 h) of the same compound?
A: The average intracellular concentration was 57.6 μg/mg cells.

Q: And the “intracellular:extracellular ratio” value (HRT-18 cells; HRT-18 cells, 24 h)?
A: The value was 5.34 fold.

Q: And the “concentration of tylvalosin accumulated in the cells” value (HRT-18 cells; HRT-18 cells, 0.5, 5 or 50 μg/mL tylvalosin, within 4 h)?
A: Its value is “at least 585 μg”.

Q: And the “cell:medium concentration ratio” value (HRT-18 cells; HRT-18 cells, 24 h incubation, compared with 4 h)?
A: The value was “lower”.

Q: What about the average intracellular concentration (LLC-PK1 cells; 75 min) of the same compound?
A: The average intracellular concentration was 53.95 μg/mg cells.

Q: What about the “intracellular:extracellular ratio” value (LLC-PK1 cells; 120 min) of the same compound?
A: Its value is 8.9.

Q: What about the “inhibition of infection of MDCK cells” value [1] of the same compound?
A: Its value is 92%.

Q: What about the “inhibition of infection of MDCK cells” value [2] of the same compound?
A: The value was “completely inhibited”.

Q: What about the “spread of the virus to neighbouring cells” value (PRRSV) of the same compound?
A: The value was “prevented spread”.

Q: And the virus positive cells (PRRSV; harvested 28 hours post infection)?
A: The virus positive cells was 1%.

Q: What about the “influenza strain Udorn infection over the 24 hour period (immunofluorescence and plaque assay)” value (influenza strain Udorn) of the same compound?
A: Its value is “inhibited”.

Q: And the blood levels [3]?
A: The blood levels was “higher blood levels than tylosin”.

Reference: patent publication US9649324B2, “Use of tylvalosin as antiviral agent” (ECO ANIMAL HEALTH LIMITED, priority 2006, dated 2017)
